pIC50: −log10 of the molar value. “And” between values parts separate entries of the source, which are not always exact repeats. Equal entries are not always repeated.
Columns and labels:
HIV = test: Antiviral activity against HIV: reversal of cytopathic effect in MT4 cells, propidium iodide dye uptake; assay type: cell-based; details: Human immunodeficiency virus 1, 120 h, HIV-1 (strain 3B) or HIV-2 (Zagury strain), not stated which, 5 days
Experimental: Anti-HIV activity of compounds of formula (I) was determined using the method of Averett D. R., 1989, J. Virol. Methods, 23, pp263-276, by measuring the ability of the compound to reverse the cytopathic effect of HIV infection. This was determined by a quantitative assessment of cell growth monitored at the fifth day post infection by a propidium iodide dye uptake test. MT4 cells were incubated with 100XTCID50 of HIV-1 (strain 3B) or HIV-2 (Zagury strain) for one hour prior to addition of the compound in six different concentrations varying from 2 to 200 μM. The cells were allowed to incubate for five days at 37° C. On day 5, NP-40, a detergent, was added to a final concentration of 0.5% immediately prior to analysis. Cell number was determined using a method which measures the fluorescence of a dye (propidium iodide) which binds to DNA. Since the amount of DNA is directly proportional to cell number, this fluorescence assay is an indication of cell growth. While uninfected cells double in cell number several times during the five days duration of the assay, HIV-infected cells grow very little, if at all. A compound which reverses the cytopathic effect of HIV would allow for rapid cell growth, approaching that of the mock-infected cells. […]

Hepatitis B Virus (HBV) = test: Antiviral activity against HBV: extracellular HBV DNA from HepG2 2.2.15 cells; assay type: cell-based, human HBV; details: culture medium, treated at 25 μm (so in the source)
Experimental: Anti-HBV activity of compounds of formula (I) was determined using a method described by Korba B. E. and Milman G., Antiviral Research, 1991, Vol.15, pp217-228.
The assay utilises the human HBV producer cell line of HepG2, 2.2.15, described and characterized by Sells et al., PNAS 84, 1005 (1987) and J. Virol. […] This cell line was utilized in vitro to identify compounds with anti-HBV activity.
Supernatant media containing extracellular virion DNA (Dane particles) were harvested on days 0, 4 and 9, treated with proteinase K (1 mg/mL) and sodium dodecyl sulfate (1%), and incubated at 50° C. for one hour. DNA was extracted with equal volumes of phenol followed by chloroform and then precipitated using ammonium acetate and propanol. […] After precipitation by ammonium acetate and propanol, the intracellular DNA precipitate was dissolved, cut by restriction endonuclease, Hind III, applied co agarose gel and then treated as described by Southern to determine the quantity of replicative intermediate forms. The antiviral effect of the drug was determined by measuring at least a 100-fold reduction in the amount of Dane particles extruded into the culture medium and a similar decrease in the intracellular replicative intermediates.

Compound: CN(C)c1nc(N)nc2c1ncn2[C@H]1C[C@H](F)[C@@H](CO)O1 [Example 13, 2-Amino-9-(2,3-dideoxy-3-fluoro-β-D-erythro-pentofuranosyl)-6-(dimethylamino)-9H-purine]
- pIC50 (HIV): 5.10
- Extracellular HBV DNA, Day 0 (Hepatitis B Virus (HBV); Day 0): 60 pg/mL and 99 pg/mL and 77 pg/mL and 67 pg/mL
- Extracellular HBV DNA, Day 4 (Hepatitis B Virus (HBV); Day 4): 57 pg/mL and 33 pg/mL and 53 pg/mL and 51 pg/mL
